Laboratory results: the supplement of paper PMC10307832

Experiments:
Assay in all cases: relative viability (nuclei count vs DMSO), 5 days (fraction); higher = more cells survive
QS11 + Navitoclax = compound: C1CC2=C(C1)C=C(C=C2)OC3=NC(=C4C(=N3)N(C=N4)CC5=CC=C(C=C5)C6=CC=CC=C6)N[C@@H](CC7=CC=CC=C7)CO [QS11] + CC1(C)CCC(c2ccc(Cl)cc2)=C(CN2CCN(c3ccc(C(=O)NS(=O)(=O)c4ccc(N[C@H](CCN5CCOCC5)CSc5ccccc5)c(S(=O)(=O)C(F)(F)F)c4)cc3)CC2)C1 [Navitoclax] (partner 0.5 µM)
Summary of the method: (§1)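 Lung cancer cell lines in 1536-well plates got either a single drug or a fixed anchor-drug dose together with five library-drug doses (not always all listed) in √10 steps, by pin tool, on the day after seeding. Nuclei were counted after 5 days, and relative viability is the treated-to-vehicle ratio of nuclei counts. Values are medians of duplicate plates.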

QS11 + Phenformin = compound: C1CC2=C(C1)C=C(C=C2)OC3=NC(=C4C(=N3)N(C=N4)CC5=CC=C(C=C5)C6=CC=CC=C6)N[C@@H](CC7=CC=CC=C7)CO [QS11] + N=C(N)NC(=N)NCCc1ccccc1 [Phenformin] (partner 250 µM)
Summary of the method: as §1

AZ628 + Trametinib = compound: CC1=C(C=C(C=C1)NC(=O)C2=CC(=CC=C2)C(C)(C)C#N)NC3=CC4=C(C=C3)N=CN(C4=O)C [AZ628] + CC(=O)Nc1cccc(-n2c(=O)n(C3CC3)c(=O)c3c(Nc4ccc(I)cc4F)n(C)c(=O)c(C)c32)c1 [Trametinib] (partner 0.02 µM)
Summary of the method: as §1

AZ628 + Luminespib = compound: CC1=C(C=C(C=C1)NC(=O)C2=CC(=CC=C2)C(C)(C)C#N)NC3=CC4=C(C=C3)N=CN(C4=O)C [AZ628] + CCNC(=O)c1noc(-c2cc(C(C)C)c(O)cc2O)c1-c1ccc(CN2CCOCC2)cc1 [Luminespib] (partner 0.01 µM)
Summary of the method: as §1

Row | Cell Line | relative viability (QS11 + Navitoclax; first compound 0.08 µM) | relative viability (QS11 + Navitoclax; first compound 0.253 µM) | relative viability (QS11 + Navitoclax; first compound 0.8 µM) | relative viability (QS11 + Navitoclax; first compound 2.53 µM) | relative viability (QS11 + Navitoclax; first compound 8 µM) | relative viability (QS11 + Phenformin; first compound 0.08 µM) | relative viability (QS11 + Phenformin; first compound 0.253 µM) | relative viability (QS11 + Phenformin; first compound 0.8 µM) | relative viability (QS11 + Phenformin; first compound 2.53 µM) | relative viability (QS11 + Phenformin; first compound 8 µM) | relative viability (AZ628 + Trametinib; first compound 0.08 µM) | relative viability (AZ628 + Trametinib; first compound 0.253 µM) | relative viability (AZ628 + Trametinib; first compound 0.8 µM) | relative viability (AZ628 + Trametinib; first compound 2.53 µM) | relative viability (AZ628 + Trametinib; first compound 8 µM) | relative viability (AZ628 + Luminespib; first compound 0.08 µM) | relative viability (AZ628 + Luminespib; first compound 0.253 µM) | relative viability (AZ628 + Luminespib; first compound 0.8 µM) | relative viability (AZ628 + Luminespib; first compound 2.53 µM) | relative viability (AZ628 + Luminespib; first compound 8 µM)
1 | NCI-H2009 | 1.13 | 1.19 | 0.972 | 1.02 | 0.981 | 0.466 | 0.498 | 0.459 | 0.419 | 0.416 | 0.208 | 0.177 | 0.198 | 0.179 | 0.194 | 0.967 | 0.957 | 0.894 | 0.966 | 0.38
2 | HCC-827 | 0.987 | 1.01 | 0.833 | 0.944 | 0.899 | 0.447 | 0.416 | 0.366 | 0.478 | 0.547 | 0.352 | 0.348 | 0.3 | 0.342 | 0.316 | 0.698 | 0.5 | 0.588 | 0.701 | 0.623
3 | NCI-H322M | 1.21 | 1.21 | 1.22 | 1.35 | 1.26 | 0.784 | 0.824 | 0.803 | 0.877 | 1.06 | 0.473 | 0.511 | 0.489 | 0.536 | 0.617 | 0.924 | 0.815 | 0.935 | 0.79 | 0.549
4 | NCI-H1755 | 1.03 | 0.994 | 0.531 | 0.898 | 0.834 | 0.594 | 0.649 | 0.502 | 0.533 | 0.51 | 0.63 | 0.604 | 0.483 | 0.561 | 0.305 | 0.326 | 0.446 | 0.443 | 0.421 | 0.278
5 | LU99A | 0.867 | 0.841 | 0.937 | 0.847 | 0.592 | 0.768 | 0.975 | 1.07 | 0.827 | 0.869 | 0.296 | 0.277 | 0.245 | 0.244 | 0.288 | 0.306 | 0.283 | 0.23 | 0.207 | 0.183
6 | EBC-1 | 0.387 | 0.352 | 0.374 | 0.363 | 0.393 | – | – | – | – | – | – | – | – | – | – | – | – | – | – | –
7 | NCI-H1623 | – | – | – | – | – | 0.497 | 0.576 | 0.489 | 0.548 | 0.602 | – | – | – | – | – | 0.493 | 0.432 | 0.393 | 0.358 | 0.395
8 | NCI-H1703 | 1.41 | 1.11 | 1.18 | 1.3 | 1.35 | – | – | – | – | – | – | – | – | – | – | – | – | – | – | –
9 | NCI-H1563 | – | – | – | – | – | 0.661 | 0.682 | 0.723 | 0.637 | 0.624 | – | – | – | – | – | 0.531 | 0.524 | 0.519 | 0.56 | 0.515
10 | NCI-H650 | – | – | – | – | – | 0.428 | 0.486 | 0.475 | 0.392 | 0.399 | 0.568 | 0.393 | 0.357 | 0.365 | 0.282 | 0.935 | 0.816 | 0.909 | 0.843 | 0.63
11 | HCC-78 | 0.802 | 0.797 | 0.756 | 0.841 | 0.818 | 0.788 | 0.722 | 0.725 | 0.871 | 0.798 | 0.613 | 0.424 | 0.377 | 0.375 | 0.46 | – | – | – | – | –
12 | NCI-H661 | – | – | – | – | – | 0.221 | 0.297 | 0.273 | 0.297 | 0.261 | 0.509 | 0.426 | 0.413 | 0.377 | 0.535 | 1.03 | 0.941 | 0.912 | 0.961 | 0.731
13 | Calu-6 | 1.08 | 0.844 | 0.872 | 1.01 | 0.901 | – | – | – | – | – | – | – | – | – | – | – | – | – | – | –
14 | SW 900 | – | – | – | – | – | 0.54 | 0.578 | 0.709 | 0.417 | 0.402 | 0.506 | 0.663 | 0.568 | 0.555 | 0.309 | 0.18 | 0.188 | 0.156 | 0.152 | 0.176
15 | NCI-H1299 | 1.04 | 1.07 | 1.03 | 0.923 | 0.839 | – | – | – | – | – | – | – | – | – | – | – | – | – | – | –
16 | NCI-H522 | – | – | – | – | – | 0.689 | 0.656 | 0.621 | 0.705 | 0.677 | 0.768 | 0.745 | 0.678 | 0.732 | 0.584 | 1.33 | 1.15 | 1.16 | 1.29 | 0.821
17 | LCLC-103H | – | – | – | – | – | 0.315 | 0.403 | 0.341 | 0.342 | 0.382 | 0.58 | 0.586 | 0.657 | 0.565 | 0.584 | 0.971 | 0.879 | 0.974 | 0.94 | 0.965
18 | NCI-H1648 | – | – | – | – | – | – | – | – | – | – | 0.404 | 0.333 | 0.288 | 0.337 | 0.284 | – | – | – | – | –
19 | IA-LM | 0.762 | 0.828 | 0.69 | 0.5 | 0.614 | – | – | – | – | – | – | – | – | – | – | – | – | – | – | –
20 | HCC-366 | 1.05 | 1.08 | – | 0.721 | 0.414 | 0.607 | 0.613 | – | 0.589 | 0.504 | 0.277 | 0.242 | 0.204 | 0.233 | 0.156 | – | – | – | – | –
